Results taken from patent publication US7211572B2 (Japan Tobacco Inc., priority 2003, dated 2007).
Structures can show the parent of a compound that is named as a salt.

Target: T1, HIV integrase (Human immunodeficiency virus type 1 group M subtype B, UniProt P12497, F1332H)
T1 construct: HIV integrase full length gene; made in house; host or cells: Escherichia coli BL21(DE3), plasmid pET21a-INH
Assay: Determination of enzyme (HIV integrase) inhibitory activity
Type: biochemical
Conditions: recombinant HIV integrase (F185H), strand transfer ELISA, absorbance at 450 nm
Procedure, shortened: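 Full-length integrase with F185H, expressed in E. coli and purified, was reacted for 60 min at 37 °C with compound and biotinylated donor DNA bound to streptavidin plates. Target DNA was added for 10 min, then anti-digoxigenin-peroxidase detection at A450; IC50 from % inhibition versus enzyme-free blank.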

| Structure (SMILES) | IC50 [nM] |
| --- | --- |
| COc1ccc(Cl)cc1Cn1ccn2ccc(=O)c(O)c2c1=O [Example 202, 2-(5-chloro-2-methoxybenzyl)-9-hydroxy-2H-pyrido[1,2-a]pyrazine-1,8-dione hydrochloride] | 10 to 100 |
| CS(=O)(=O)Nc1cn2ccn(Cc3cccc(Cl)c3)c(=O)c2c(O)c1=O [Example 203, N-[2-(3-chlorobenzyl)-9-hydroxy-1,8-dioxo-1,8-dihydro-2H-pyrido[1,2-a]pyrazin-7-yl]methanesulfonamide] | < 10 |
| CC(=O)c1cn2ccn(Cc3cccc(Cl)c3)c(=O)c2c(O)c1=O [Example 204, 7-acetyl-2-(3-chlorobenzyl)-9-hydroxy-2H-pyrido[1,2-a]pyrazine-1,8-dione hydrochloride] | < 10 |
| CCC(=O)c1cn2ccn(Cc3cccc(Cl)c3)c(=O)c2c(O)c1=O [Example 205, 2-(3-chlorobenzyl)-9-hydroxy-7-propionyl-2H-pyrido[1,2-a]pyrazine-1,8-dione hydrochloride] | < 10 |
| O=c1ccn2ccn(C/C=C/c3ccccc3)c(=O)c2c1O [Example 206, 9-hydroxy-2-(3-phenylallyl)-2H-pyrido[1,2-a]pyrazine-1,8-dione] | 10 to 100 |
| CNC(=O)c1cn2ccn(Cc3ccc(F)c(Cl)c3)c(=O)c2c(O)c1=O [Example 207, N-methyl-2-(3-chloro-4-fluorobenzyl)-9-hydroxy-1,8-dioxo-1,8-dihydro-2H-pyrido[1,2-a]pyrazine-7-carboxamide] | < 10 |
| CN(C)C(=O)c1cn2ccn(Cc3ccc(F)c(Cl)c3)c(=O)c2c(O)c1=O [Example 208, N,N-dimethyl-2-(3-chloro-4-fluorobenzyl)-9-hydroxy-1,8-dioxo-1,8-dihydro-2H-pyrido[1,2-a]pyrazine-7-carboxamide] | < 10 |
| CS(=O)(=O)CCNC(=O)c1cn2ccn(Cc3cccc(Cl)c3)c(=O)c2c(O)c1=O [Example 209, N-(2-methanesulfonylethyl)-2-(3-chlorobenzyl)-9-hydroxy-1,8-dioxo-1,8-dihydro-2H-pyrido[1,2-a]pyrazine-7-carboxamide] | 10 to 100 |
| O=C(NCCN1CCCC1=O)c1cn2ccn(Cc3cccc(Cl)c3)c(=O)c2c(O)c1=O [Example 210, N-[2-(2-oxopyrrolidin-1-yl)ethyl)-2-(3-chlorobenzyl)-9-hydroxy-1,8-dioxo-1,8-dihydro-2H-pyrido[1,2-a]pyrazine-7-carboxamide] | 10 to 100 |
| CN(c1cn2ccn(Cc3cccc(Cl)c3)c(=O)c2c(O)c1=O)S(C)(=O)=O [Example 211, N-[2-(3-chlorobenzyl)-9-hydroxy-1,8-dioxo-1,8-dihydro-2H-pyrido[1,2-a]pyrazin-7-yl]-N-methylmethanesulfonamide] | < 10 |
| COc1cc(Cl)cc(Cn2ccn3ccc(=O)c(O)c3c2=O)c1 [Example 212, 2-(3-chloro-5-methoxybenzyl)-9-hydroxy-2H-pyrido[1,2-a]pyrazine-1,8-dione hydrochloride] | 10 to 100 |
| O=C(NCc1ccncc1)c1cn2ccn(Cc3cccc(Cl)c3)c(=O)c2c(O)c1=O [Example 213, N-(pyridin-4-ylmethyl)-2-(3-chlorobenzyl)-9-hydroxy-1,8-dioxo-1,8-dihydro-2H-pyrido[1,2-a]pyrazine-7-carboxamide] | 10 to 100 |
| O=C(NCc1ccc(F)cc1)c1cn2ccn(Cc3cccc(Cl)c3)c(=O)c2c(O)c1=O [Example 214, N-(4-fluorobenzyl)-2-(3-chlorobenzyl)-9-hydroxy-1,8-dioxo-1,8-dihydro-2H-pyrido[1,2-a]pyrazine-7-carboxamide] | < 10 |
| O=C1c2c(O)c(=O)c(-c3nccs3)cn2CCN1Cc1cccc(Cl)c1 [Example 215, 2-(3-chlorobenzyl)-9-hydroxy-7-(thiazol-2-yl)-3,4-dihydro-2H-pyrido[1,2-a]pyrazine-1,8-dione] | < 10 |
| O=c1c(CO)cn2ccn(Cc3cccc(Cl)c3)c(=O)c2c1O [Example 216, 2-(3-chlorobenzyl)-9-hydroxy-7-hydroxymethyl-2H-pyrido[1,2-a]pyrazine-1,8-dione hydrochloride] | 10 to 100 |
| CC(C)(C)C(=O)c1cn2ccn(Cc3ccc(F)c(Cl)c3)c(=O)c2c(O)c1=O [Example 217, 2-(3-chloro-4-fluorobenzyl)-7-(2,2-dimethylpropionyl)-9-hydroxy-2H-pyrido[1,2-a]pyrazine-1,8-dione hydrochloride] | < 10 |
| O=c1c(-c2cncs2)cn2ccn(Cc3cccc(Cl)c3)c(=O)c2c1O [Example 218, 2-(3-chlorobenzyl)-9-hydroxy-7-(thiazol-5-yl)-2H-pyrido[1,2-a]pyrazine-1,8-dione hydrochloride] | < 10 |
| CNC(=O)c1cn2c(c(O)c1=O)C(=O)N(Cc1cccc(Cl)c1)CC2 [Example 219, 2-(3-chlorobenzyl)-9-hydroxy-1,8-dioxo-1,3,4,8-tetrahydro-2H-pyrido[1,2-a]pyrazine-7-carboxylic acid methylamide] | 10 to 100 |

| Structure (SMILES) | IC50 [nM] |
| --- | --- |
| CN(C)C(=O)c1cn2c(c(O)c1=O)C(=O)N(Cc1cccc(Cl)c1)CC2 [Example 220, N,N-dimethyl-2-(3-chlorobenzyl)-9-hydroxy-1,8-dioxo-1,3,4,8-tetrahydro-2H-pyrido[1,2-a]pyrazine-7-carboxamide] | 10 to 100 |
| CC(C)(C)C(=O)c1cn2c(c(O)c1=O)C(=O)N(Cc1ccc(F)c(Cl)c1)CC2 [Example 221, 2-(3-chloro-4-fluorobenzyl)-7-(2,2-dimethylpropionyl)-9-hydroxy-3,4-dihydro-2H-pyrido[1,2-a]pyrazine-1,8-dione hydrochloride] | < 10 |
| CNC(=O)c1cn2c(CO)cn(Cc3ccc(F)c(Cl)c3)c(=O)c2c(O)c1=O [Example 222, 2-(3-chloro-4-fluorobenzyl)-9-hydroxy-4-hydroxymethyl-1,8-dioxo-1,8-dihydro-2H-pyrido[1,2-a]pyrazine-7-carboxylic acid methylamide hydrochloride] | < 10 |
| CC(C)(C)C(=O)c1cn2c(c(O)c1=O)C(=O)N(Cc1cccc(Cl)c1)CC2 [Example 223, 2-(3-chlorobenzyl)-7-(2,2-dimethylpropionyl)-9-hydroxy-3,4-dihydro-2H-pyrido[1,2-a]pyrazine-1,8-dione hydrochloride] | 10 to 100 |
| O=c1ccn2ccn(Cc3ccc(Cl)cc3O)c(=O)c2c1O [Example 224, 2-(4-chloro-2-hydroxybenzyl)-9-hydroxy-2H-pyrido[1,2-a]pyrazine-1,8-dione hydrochloride] | 10 to 100 |
| O=C1c2c(O)c(=O)c(-c3nccs3)cn2CCN1Cc1ccc(F)c(Cl)c1 [Example 225, 2-(3-chloro-4-fluorobenzyl)-9-hydroxy-7-(thiazol-2-yl)-3,4-dihydro-2H-pyrido[1,2-a]pyrazine-1,8-dione] | < 10 |
| CN(C(=O)Cn1ccn2ccc(=O)c(O)c2c1=O)c1ccccc1 [Example 226, 2-(9-hydroxy-1,8-dioxo-1,8-dihydro-pyrido[1,2-a]pyrazin-2-yl)-N-methyl-N-phenylacetamide hydrochloride] | 100 to 1000 |
| CNC(=O)c1cn2c(c(O)c1=O)C(=O)N(Cc1ccc(F)c(Cl)c1)CC2 [Example 227, N-methyl-2-(3-chloro-4-fluorobenzyl)-9-hydroxy-1,8-dioxo-1,3,4,8-tetrahydro-2H-pyrido[1,2-a]pyrazine-7-carboxamide] | 10 to 100 |
| CN(C)C(=O)c1cn2c(c(O)c1=O)C(=O)N(Cc1ccc(F)c(Cl)c1)CC2 [Example 228, N,N-dimethyl-2-(3-chloro-4-fluorobenzyl)-9-hydroxy-1,8-dioxo-1,3,4,8-tetrahydro-2H-pyrido[1,2-a]pyrazine-7-carboxamide] | 10 to 100 |
| CC(=O)OCC(C)(C)C(=O)c1cn2ccn(Cc3cccc(Cl)c3)c(=O)c2c(O)c1=O [Example 229, 3-[2-(3-chlorobenzyl)-9-hydroxy-1,8-dioxo-1,8-dihydro-2H-pyrido[1,2-a]pyrazin-7-yl]-2,2-dimethyl-3-oxopropyl acetate hydrochloride] | < 10 |
| CC(C)(CO)C(=O)c1cn2ccn(Cc3cccc(Cl)c3)c(=O)c2c(O)c1=O [Example 230, 2-(3-chlorobenzyl)-9-hydroxy-7-(3-hydroxy-2,2-dimethylpropionyl)-2H-pyrido[1,2-a]pyrazine-1,8-dione hydrochloride] | < 10 |
| O=c1c(-c2cnccn2)cn2ccn(Cc3cccc(Cl)c3)c(=O)c2c1O [Example 231, 2-(3-chlorobenzyl)-9-hydroxy-7-(pyrazin-2-yl)-2H-pyrido [1,2-a]pyrazine-1,8-dione hydrochloride] | < 10 |
| Cn1ncnc1-c1cn2ccn(Cc3cccc(Cl)c3)c(=O)c2c(O)c1=O [Example 232, 2-(3-chlorobenzyl)-9-hydroxy-7-(2-methyl-2H-1,2,4-triazol-3-yl)-2H-pyrido[1,2-a]pyrazine-1,8-dione hydrochloride] | < 10 |
| O=C(NCCF)c1cn2ccn(Cc3cccc(Cl)c3)c(=O)c2c(O)c1=O [Example 233, N-(2-fluoroethyl)-2-(3-chlorobenzyl)-9-hydroxy-1,8-dioxo-1,8-dihydro-2H-pyrido[1,2-a]pyrazine-7-carboxamide] | < 10 |
| CN(Cc1ccccc1)C(=O)c1cn2ccn(Cc3cccc(Cl)c3)c(=O)c2c(O)c1=O [Example 234, N-benzyl-N-methyl-2-(3-chlorobenzyl)-9-hydroxy-1,8-dioxo-1,8-dihydro-2H-pyrido[1,2-a]pyrazine-7-carboxamide] | < 10 |
| O=c1c(Sc2ccccc2)cn2ccn(Cc3cccc(Cl)c3)c(=O)c2c1O [Example 235, 2-(3-chlorobenzyl)-9-hydroxy-7-phenylsulfanyl-2H-pyrido [1,2-a]pyrazine-1,8-dione] | 10 to 100 |
| O=c1c([S+]([O-])c2ccccc2)cn2ccn(Cc3cccc(Cl)c3)c(=O)c2c1O (centres unmarked) [Example 236, 7-benzenesulfinyl-2-(3-chlorobenzyl)-9-hydroxy-2H-pyrido[1,2-a]pyrazine-1,8-dione] | 10 to 100 |
